From patent EP4008716A1, “NOVEL INHIBITORS OF INSULIN-LIKE GROWTH FACTOR 2 MRNA BINDING PROTEINS” (Martin-Luther-Universität Halle-Wittenberg, priority 2020, dated 2022)
pEC50: −log10 of the molar value.

Tested on: ES-2 cells
Experiment: Cytotoxicity / cell vitality by cell confluency (IncuCyte live-cell imaging) relative to DMSO controls
Format: cell-based
Conditions: Homo sapiens, ovarian cancer-derived ES-2 cells, 72 h post compound application, eleven concentrations, two-fold dilution from 20µM, mean of three independent studies
Protocol: All novel inhibitors were explored for their cytotoxic activity in ovarian cancer-derived ES-2 cells. In these cell models, BTYNB was prior shown to impair cell vitality and metastatic potential in vitro and cancer mouse models (15). For the respective studies ES-2 cells were plated and exposed to increasing concentration of the compounds and cell vitality was monitored by determining cell confluency relative to DMSO controls using an IncuCyte cell imaging system, essentially as described recently (15). For determining the impact of the developed compounds on ES-2 cell vitality, cells were cultured in Dulbecco's modified eagle medium (DMEM) containing phenol red, 4.5 g/L D-Glucose, 0.11 g/L sodium pyruvate, 10% (v/v) fetal bovine serum (FBS) and 2 mM GlutaMAX (Sigma-Aldrich, Darmstadt, Germany). Cells were maintained in under humidified conditions at 37 °C, 5% CO2. For cytotoxicity studies, cells were seeded in 96-well flat-bottom plates at 2 x 10^3 cells per well in 100 µL supplemented DMEM and incubated for 24 h prior to addition of BTYNB derivatives. Compounds were analyzed at eleven concentrations using a two-fold dilution with an initial compound concentration of 20µM in DMSO (solvent). Cells treated with 0.002% (v/v) DMSO served as controls. Cytotoxicity of compound concentrations was determined 72 h post compound application by monitoring cell confluency using an IncuCyte Systems for Live-Cell Imaging. Cell confluency was determined with the IncuCyte 2019B Rev2 software. Confluency of controls was set to 1 (100%) and altered confluency at distinct compound concentrations was calculated as relative confluency. The mean relative confluency at compound concentrations was analyzed in three independent studies with three technical replicates each. The mean values of three analyses were plotted against the logarithmic concentration of compounds and fitted by the non-linear module [Sigmoidal, 4PL, X is log(concentration)] using GraphPad Prism V9(86) for macOS. In Table 1 compounds with EC50 values, indicating the potency of the 58 developed compounds to impair cell vitality, are listed. […] Table 2: EC-values of the synthesized compounds of formula (I)

Row | Compound | pEC50
1 | NC(=O)c1ccccc1NC(=O)CN1CCN(Cc2ccc(Cl)c(Cl)c2)CC1 [compound 20, 2-({[4-(3,4-Dichlorobenzyl)-1-piperazinyl]acetyl}amino)benzamide] | 5.91
2 | CCc1cc(C(=O)Nc2sccc2C(N)=O)cs1 [compound 15, 2-{[(5-Ethyl-3-thienyl)carbonyl]amino}-3-thiophenecarboxamide] | 5.53
3 | NC(=O)c1ccccc1NC(=O)c1ccc(Cl)c(Cl)c1 [compound 12, N-[2-(aminocarbonyl)phenyl]-3,4-dichlorobenzamide] | 5.73
4 | Cc1cc2c(=O)[nH]c(Cc3ccccc3)nc2s1 [compound 7, 2-Benzyl-6-methylthieno[2,3-d]pyrimidin-4(3H)-one] | 5.32
5 | CCc1cc(C(=O)Nc2sc(Cc3ccccc3)cc2C(N)=O)cs1 [compound 32, 5-Benzyl-2-{[(5-ethyl-3-thienyl)carbonyl]amino}-3-thiophenecarboxamide] | 5.72
6 | COc1ccc(C(=O)Nc2sc(Cc3ccccc3)cc2C(N)=O)cc1COc1ccccc1Cl [compound 44, 5-Benzyl-2-({3-[(2-chlorophenoxy)methyl]-4-methoxybenzoyl}amino)-3-thiophenecarboxamide] | 6.36
7 | NC(=O)c1cc(Cc2ccccc2)sc1NC(=O)c1cccs1 [compound 31, N-[3-(aminocarbonyl)-5-benzyl-2-thienyl]-2-thiophenecarboxamide] | 6.17
8 | NC(=O)c1ccccc1NC(=O)CN1CCN(Cc2ccc(Cl)cc2)CC1 [compound 23, 2-({[4-(4-Chlorobenzyl)-1-piperazinyl]acetyl}amino)benzamide] | 5.52
9 | CNC(=O)c1ccccc1NC(=O)c1cc(C)c(C)s1 [compound 8, 4,5-Dimethyl-N-[2-(methylcarbamoyl)phenyl]thiophene-2-carboxamide] | 5.55
10 | COc1ccc(C(=O)Nc2ccccc2C(N)=O)cc1Cl [compound 16, N-[2-(aminocarbonyl)phenyl]-3-chloro-4-methoxybenzamide] | 5.23
11 | NC(=O)c1ccccc1NC(=O)c1ccc(Cl)s1 [compound 13, N-(2-carbamoylphenyl)-5-chlorothiophene-2-carboxamide] | 5.64
12 | COc1ccc(C(=O)Nc2sc(Cc3ccccc3)cc2C(N)=O)cc1COc1c(Cl)cccc1Cl [compound 53, 5-Benzyl-2-{3-[(2,6-dichlorophenoxy)methyl]-4-methoxybenzamido}thiophene-3-carboxamide] | 5.59
13 | COc1ccc(C(=O)Nc2sc(Cc3ccccc3)cc2C(N)=O)cc1 [compound 41, 5-Benzyl-2-[(4-methoxybenzoyl)amino]-3-thiophenecarboxamide] | 5.71
14 | NC(=O)c1cc(Cc2ccccc2)sc1NC(=O)CN1CCN(Cc2ccc(Cl)c(Cl)c2)CC1 [compound 55, 2-{2-[4-(3,4-Dichlorobenzyl)piperazin-1-yl]acetamido}-5-benzylthiophene-3-carboxamide] | 5.39
15 | NC(=O)c1cc(Cc2ccccc2)sc1NC(=O)CCc1ccccc1 [compound 39, 5-Benzyl-2-[(3-phenylpropanoyl)amino]-3-thiophenecarboxamide] | 5.21
16 | CCc1c(C(=O)Nc2sc(Cc3ccccc3)cc2C(N)=O)csc1C [compound 33, 5-Benzyl-2-{[(4-ethyl-5-methyl-3-thienyl)carbonyl]amino}-3-thiophenecarboxamide] | 5.30
17 | NC(=O)c1ccccc1NC(=O)CN1CCN(Cc2c(Cl)cccc2Cl)CC1 [compound 22, 2-({[4-(2,6-Dichlorobenzyl)-1-piperazinyl]acetyl}amino)benzamide] | 5.19
18 | NC(=O)c1ccccc1NC(=O)C1CCN(C(=O)c2cccs2)CC1 [compound 11, N-[2-(aminocarbonyl)phenyl]-1-(2-thienylcarbonyl)-4-piperidinecarboxamide] | 5.29
19 | Cc1ccc(C(=O)Nc2sc(Cc3ccccc3)cc2C(N)=O)o1 [compound 35, N-[3-(Aminocarbonyl)-5-benzyl-2-thienyl]-5-methyl-2-furamide] | 5.87
20 | NC(=O)c1cc(Cc2ccccc2)sc1NC(=O)c1cccc(COc2ccc(Cl)cc2Cl)c1 [compound 50, 5-Benzyl-2-{3-[(2,4-dichlorophenoxy)methyl]benzamido}thiophene-3-carboxamide] | 7.33
21 | COc1cc(C=CC(=O)Nc2ccccc2C(N)=O)ccc1OCc1ccccc1 [compound 28, 2-({3-[4-(Benzyloxy)-3-methoxyphenyl]acryloyl}amino)benzamide] | 5.73

Row | Compound | pEC50
22 | NC(=O)c1c(NC(=O)c2ccc(Cl)s2)sc2c1CCC2 [compound 29, 2-{[(5-Chloro-2-thienyl)carbonyl]amino}-5,6-dihydro-4H-cyclopenta[b]thiophene-3-carboxamide] | 5.20
23 | O=c1[nH]c(-c2ccc(OCc3ccccc3F)cc2)nc2ccccc12 [compound 4, 2-{4-[(2-Fluorobenzyl)oxy]phenyl}-4(3H)-quinazolinone] | 6.60
24 | NC(=O)c1ccccc1OCc1ccc(Cl)s1 [compound 1, 2-[(5-chlorothiophen-2-yl)methoxy]benzamide] | 5.25
25 | NC(=O)c1cc(Cl)ccc1OCC(=O)c1ccc(Cl)s1 [compound 9, 5-chloro-2-[2-(5-chlorothiophen-2-yl)-2-oxoethoxy]benzamide] | 5.88
26 | NC(=O)c1ccccc1NC(=O)c1ccccc1 [compound 14, N-(2-carbamoylphenyl)benzamide] | 4.98
27 | NC(=O)c1ccccc1NC(=O)CN1CCN(Cc2ccccc2Cl)CC1 [compound 24, 2-({[4-(2-Chlorobenzyl)-1-piperazinyl]acetyl}amino)benzamide] | 5.02
28 | NC(=O)c1cc(Cc2ccccc2)sc1NC(=O)c1ccc(COc2ccc(Br)cc2)cc1 [compound 43, 5-Benzyl-2-({4-[(4-bromophenoxy)methyl]benzoyl}amino)-3-thiophenecarboxamide] | 5.92
29 | NC(=O)c1ccccc1NC(=O)c1cc(Cl)cc(Cl)c1 [compound 18, N-[2-(aminocarbonyl)phenyl]-3,5-dichlorobenzamide] | 5.29
30 | NC(=O)c1cc(Cc2ccccc2)sc1NC(=O)c1ccccc1 [compound 37, 2-(Benzoylamino)-5-benzyl-3-thiophenecarboxamide] | 5.64
31 | COc1ccc(C(=O)Nc2sc(Cc3ccccc3)cc2C(N)=O)cc1COc1cccc(Cl)c1Cl [compound 45, 5-Benzyl-2-({3-[(2,3-dichlorophenoxy)methyl]-4-methoxybenzoyl}amino)-3-thiophenecarboxamide] | 6.40
32 | NC(=O)c1cc(Cc2ccccc2)sc1NC(=O)c1ccc2c(c1)OCO2 [compound 38, N-[3-(aminocarbonyl)-5-benzyl-2-thienyl]-1,3-benzodioxole-5-carboxamide] | 5.88
33 | COc1ccc(C(=O)Nc2sccc2C(N)=O)cc1COc1ccccc1Cl [compound 27, 2-{3-[(2-Chlorophenoxy)methyl]-4-methoxybenzamido}thiophene-3-carboxamide] | 5.78
34 | NC(=O)c1ccccc1NC(=O)c1cccc(COc2cccc(Cl)c2)c1 [compound 17, 2-({3-[(3-Chlorophenoxy)methyl]benzoyl}amino)benzamide] | 6.17
35 | COc1ccc(OCc2cc(-c3nc4sc(Cc5ccccc5)cc4c(=O)[nH]3)ccc2OC)cc1 [compound 5, 6-Benzyl-2-{4-methoxy-3-[(4-methoxyphenoxy)methyl]phenyl}thieno[2,3-d]pyrimidin-4(3H)-one] | 5.95
36 | NC(=O)c1ccccc1OCC(=O)c1ccc(Br)cc1 [compound 19, 2-[2-(4-Bromophenyl)-2-oxoethoxy]benzamide] | 5.53
37 | NC(=O)c1cc(Cc2ccccc2)sc1NC(=O)COc1ccccc1 [compound 40, 5-Benzyl-2-[(phenoxyacetyl)amino]-3-thiophenecarboxamide] | 5.62
38 | Cc1ccc(C(=O)Nc2ccccc2C(N)=O)s1 [compound 2, N-[2-(aminocarbonyl)phenyl]-5-methyl-2-thiophenecarboxamide] | 5.69
39 | NC(=O)c1cc(Cc2ccccc2)sc1NC(=O)c1ccc(Cl)s1 [compound 36, N-[3-(Aminocarbonyl)-5-benzyl-2-thienyl]-5-chloro-2-thiophenecarboxamide] | 5.78
40 | COc1ccc(C(=O)Nc2ccccc2C(N)=O)cc1COc1ccccc1Cl [compound 26, 2-{3-[(2-Chlorophenoxy)methyl]-4-methoxybenzamido}benzamide] | 5.96
41 | NC(=O)c1ccsc1NC(=O)CN1CCN(Cc2ccc(Cl)c(Cl)c2)CC1 [compound 56, 2-{2-[4-(3,4-Dichlorobenzyl)piperazin-1-yl]acetamido}thiophene-3-carboxamide] | 6.11

Same assay, conditions: ovarian cancer-derived ES-2 cells, 72 h post compound application, eleven concentrations, two-fold dilution from 20µM, mean of three independent studies

Row | Compound | pEC50
42 | 2-({4-[(2-Bromophenoxy)methyl]benzoyl}amino)-5-isopropyl-3-thiophenecarboxamide [compound 57] | 5.43
